The text below walks through data of patent publication US9006454B2, “Dihydroorotate dehydrogenase inhibitors” (Merck Serono S.A., priority 2009, dated 2015).

In test [1] the test system is colon 38 tumor. The note with it: murine model colon 38 tumor; cited from earlier work.
Test [2] relates to L1210 murine leukemia. The note with it: cited from earlier work.
In test [3] the test system is multiple sclerosis with relapses. The conditions noted are these: once-daily oral 7 and 14 mg; cited from earlier work.
The subject of test [4] is experimental allergic encephalomyelitis (EAE). The conditions noted are these: oral, from 10 days after inoculation; Teriflunomide 3 and 10 mg/kg, dexamethasone 1 mg/kg; cited from earlier work.
Test [5] deals with spleen colony-forming units (CFU). The conditions noted are these: cited from earlier work.
In test [6] the target is T1, DHODH (Homo sapiens (Human), UniProt Q02127). The conditions noted are these: cited from earlier work.
Target sequence in this assay (Q02127 whole entry, species assumed): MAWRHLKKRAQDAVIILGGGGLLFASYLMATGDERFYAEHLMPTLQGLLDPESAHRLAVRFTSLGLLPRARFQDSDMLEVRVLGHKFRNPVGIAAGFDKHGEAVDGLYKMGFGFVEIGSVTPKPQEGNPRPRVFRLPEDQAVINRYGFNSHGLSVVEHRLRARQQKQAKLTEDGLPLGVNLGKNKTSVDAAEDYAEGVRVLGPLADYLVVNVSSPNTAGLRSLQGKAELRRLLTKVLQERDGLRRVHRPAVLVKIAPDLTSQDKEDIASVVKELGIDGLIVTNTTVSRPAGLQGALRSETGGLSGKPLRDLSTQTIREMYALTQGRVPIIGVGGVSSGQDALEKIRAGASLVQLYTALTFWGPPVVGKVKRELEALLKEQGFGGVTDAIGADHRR
Test [7] relates to Jurkat cells. The experiment in a line: Measurement of cell proliferation (Jurkat cell), XTT assay. In kind it is cell-based. The conditions noted are these: Homo sapiens, Jurkat; for inhibition at 1 µM: compound at 1 uM, read-out: % inh Jurkat_cells @ 1 uM (%). Summed up:
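Jurkat T cells, 100,000 per well in RPMI with 10% FBS, exposed 72 h at 37 °C to serial compound dilutions (typically from 10 μM, half-log steps, triplicate) at 0.25–0.5% DMSO. Viability by XTT/PMS, A465 after 2 h, media background subtracted, untreated cells as 100%; EC50 from curve fit.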

In test [8] the target is T1, DHODH. The experiment in a line: DHODH activity assay (coupled enzyme assay, DCIP reduction, absorbance at 610 nm). In kind it is biochemical. The note with it: for inhibition at 10 µM: compound at 10 uM, read-out: inh @ 10 uM hDHODH (%).
Target sequence in this assay (Q02127 whole entry): as the sequence (Q02127 whole entry, species assumed) above

`Cc1c(-c2ccc(-c3ccccc3F)cc2)nc2ccc(F)cc2c1C(=O)O` [Brequinar, 6-Fluoro-2-(2′-fluoro[1,1′-biphenyl]-4-yl)-3-methyl-4-quinolinecarboxylic Acid]: the “potentiation of 5-fluorouracil antitumor activity” value in test [1] was “potentiates 5-fluorouracil antitumor activity”. In addition, in test [2], the “anticancer activity towards L1210 murine leukemia” value is given as “exhibits an anticancer activity”.

Regarding `C/C(O)=C(\C#N)C(=O)Nc1ccc(C(F)(F)F)cc1` [Teriflunomide], in test [3], the “number of unique active lesions compared to placebo” value is “reduced number of unique active lesions”. Moreover, the “onset of disease and symptom severity in EAE” value in test [4] was “significant delay in the onset of disease and in symptom severity”. Besides, in test [5], the CFU cycling entry is given as “inhibited CFU cycling”. In test [6], the “fold greater inhibitor of DHODH than of protein tyrosine kinase” value is 100-1,000 fold.

Take `C[C@@H]1C[C@H]2[C@@H]3CCC4=CC(=O)C=C[C@]4(C)[C@@]3(F)[C@@H](O)C[C@]2(C)[C@@]1(O)C(=O)CO` [dexamethasone]: the “onset of disease and symptom severity in EAE” value in test [4] was “significant delay in the onset of disease and in symptom severity”.

As for `O=C(O)c1cccc2nc(-c3ccc(-n4ccccc4=O)cc3)[nH]c12` [I63], in test [7], the inhibition at 1 µM was 1.4%. Besides, the inhibition at 10 µM in test [8] was 5.3%.

Turning to `O=Cc1ccc(-c2ccc(-c3nc4c(C(=O)O)cccc4[nH]3)cc2)cc1` [I181], the inhibition at 1 µM in test [7] was 9.4%. The inhibition at 10 µM in test [8] worked out at 40.4%.

Compound `Cc1cc(C(=O)O)c2nc(-c3ccc(-c4cccnc4)cc3)[nH]c2c1` [I59] yielded an EC50 in test [7] (72 h, XTT cell viability) of 450 nM. Further, in test [7], the inhibition at 1 µM was 73.5%. Further, in test [8], the half-maximal inhibitory concentration (IC50) was determined as 407 nM and the inhibition at 10 µM stood at 99.2%.
